Assay results as given in PubChem BioAssay AID1419 (Emory University Molecular Libraries Screening Center, 2008).
pIC50: −log10 of the molar value. Calls of active or inactive are those of the source. The rule behind the calls is not given here.

Test: EBV protein-peptide binding inhibitors, dose response, biochemical, fluorescence polarization (AID 1419)
Conditions: cell-free protein-peptide binding, 2 h; for fold change: measured here: P channel fold over control, at 54 µM

What does the source list for `O=C1CCN2C=Nc3cccc4ccc1c2c34`?
pIC50: > 6.38; fold change: 171

With `C=CCN1C(=O)/C(=C\C=C2\N(C)c3ccccc3C2(C)C)SC1=S` as the compound, how does the pIC50 read?
Its pIC50 is 5.29.

And the fold change?
Its fold change is 8.39.

With `CCc1nn2c(=O)cc(COc3ccc(/C=C4\C(=N)N5N=C(C)SC5=NC4=O)cc3)nc2s1` as the compound, how does the pIC50 read?
The pIC50 was 4.78.

What about the fold change of the same compound?
Its fold change is 1.14.

Which results are given for `O=C(CSc1nnc(SCc2ccccc2)s1)N/N=C/C=C/c1ccco1`?
IC50: > 54 µM (inactive); fold change: 1.04

For `Cc1ccc(N=Nc2c(N)[nH]n3c(=O)cc(-c4ccccc4)nc23)cc1`, which IC50 is on record?
The IC50 was > 54 µM (inactive).

And the fold change?
The fold change was 1.02.

Which IC50 does the source give for `CCOC(=O)/C(C#N)=C/c1ccc(N2CCN(Cc3ccccc3)CC2)cc1` here?
The IC50 was 40.3 µM (inactive).

What about the fold change of the same compound?
The fold change was 9.09.

Which IC50 does the source give for `CCN1/C(=C2\SC(=S)N(Cc3ccccc3)C2=O)Sc2ccccc21` here?
Its IC50 is > 54 µM (inactive).

And the fold change?
Its fold change is 2.96.

With `O=C1Nc2ccccc2/C1=C/c1cnc(-c2ccccc2)[nH]1` as the compound, how does the pIC50 read?
The pIC50 was 5.37.

What about the fold change of the same compound?
Its fold change is 14.6.

With `O=C(N=Nc1c(O)[nH]c2ccccc12)c1cc(-c2ccc(F)cc2)n[nH]1` as the compound, how does the IC50 read?
The IC50 was > 54 µM (inactive).

And the fold change?
Its fold change is 0.81.

With `O=[N+]([O-])c1ccc(-c2cn(-c3ccc(Cl)cc3)c(=S)[nH]2)cc1` as the compound, how does the IC50 read?
The IC50 was > 54 µM (inactive).

What about the fold change of the same compound?
The fold change was 0.93.

With `COc1ccc2c(C=Nc3c(C)n(C)n(-c4ccccc4)c3=O)c(O)n(Cc3ccco3)c(=O)c2c1` as the compound, how does the pIC50 read?
Its pIC50 is 5.37.

And the fold change?
Its fold change is 3.39.

With `Nc1nnc(-c2cc3c(ccc4ccccc43)oc2=O)s1` as the compound, how does the pIC50 read?
Its pIC50 is greater than 6.38.

What about the fold change of the same compound?
The fold change was 2.34.

With `Nc1cc2nsnc2cc1Br` as the compound, how does the pIC50 read?
The pIC50 was 4.54.

And the fold change?
The fold change was 1.84.

Which results are given for `COc1ccc(C2C(C(=O)c3cccs3)=C(O)C(=O)N2c2nncs2)cc1` (stereo not drawn)?
pIC50: > 6.38; fold change: 13

With `Brc1ccc(C2=CC(c3ccco3)n3ncnc3N2)cc1` (stereo not drawn) as the compound, how does the pIC50 read?
The pIC50 was 5.96.

What about the fold change of the same compound?
Its fold change is 6.05.

What does the source list for `Cc1cc(=O)oc2c3c4c(cc12)OCCN4CCC3`?
pIC50: 5.40; fold change: 3.5

What does the source list for `COc1cc(C2C=C(c3cccs3)Nc3ncnn32)cc(OC)c1OC` (stereo not drawn)?
pIC50: > 6.38; fold change: 13.5

What does the source list for `Oc1ccc2ccccc2c1N=Nc1ccc(F)cc1`?
IC50: > 54 µM (inactive); fold change: 1.24

What does the source list for `Cc1ccc2cc(C=C(C#N)C#N)c(N3CCCCC3)nc2c1`?
pIC50: 5.53; fold change: 24

What does the source list for `O=C(NCc1ccco1)c1c2c(nc3ccccc13)CCC2`?
IC50: > 54 µM (inactive); fold change: 1.05

With `COc1ccc(-c2onc3ccc(Br)cc23)cc1` as the compound, how does the pIC50 read?
The pIC50 was 6.07.

And the fold change?
Its fold change is 7.24.

With `Cc1cc2nc3c(=O)n(Cc4ccccc4)c(=O)[nH]c3nc2cc1N` as the compound, how does the pIC50 read?
Its pIC50 is greater than 6.38.

And the fold change?
The fold change was 87.1.

With `O=C(C1=NN(c2ccccc2)C2C(=O)N(c3ccccc3)C(=O)C12)c1ccccc1` (stereo not drawn) as the compound, how does the pIC50 read?
Its pIC50 is 5.20.

And the fold change?
Its fold change is 3.88.

Which results are given for `Cc1ccc(C)c(-n2c3nc(=O)[nH]c(=O)c-3cc3cc([N+](=O)[O-])ccc32)c1`?
pIC50: 5.08; fold change: 2.52

What does the source list for `O=C(Nc1nnc(-c2ccccc2Cl)o1)c1cc2cc([N+](=O)[O-])ccc2s1`?
IC50: > 54 µM (inactive); fold change: 1.09

With `COc1cc(N2CCCC2)c(OC)cc1/C=C(/C#N)c1ccc(F)cc1` as the compound, how does the pIC50 read?
The pIC50 was 5.02.

And the fold change?
The fold change was 10.8.

Which results are given for `NC(=O)c1c(NC(=O)Cn2nc(C(=O)O)c3ccccc3c2=O)sc2c1CCCC2`?
IC50: > 54 µM (inactive); fold change: 1.01

With `O=[N+]([O-])c1ccc2[nH]c(O)c(N=NC(=S)Nc3cccnc3)c2c1` as the compound, how does the IC50 read?
Its IC50 is > 54 µM (inactive).

And the fold change?
The fold change was 0.61.

With `Nc1c(C(=O)NCC2CCCO2)sc2nc3c(c(-c4ccco4)c12)CC/C3=C\c1ccco1` (stereo not drawn) as the compound, how does the pIC50 read?
Its pIC50 is greater than 6.38.

And the fold change?
Its fold change is 3.22.
